Assay [1] addresses T1, BRD4.1 (Homo sapiens, UniProt O60885). As to conditions: read-out: BRD4.1 (IC50).
In assay [2] the target is T1, BRD4.1. As to conditions: read-out: ITC (Kd); BRD4.1, ITC at 25 C.
Assay [3] relates to 797. The experiment in a line: Cellular assay, cell viability by ATPlite, 797 cells. It counts as cell-based. Conditions: for IC50: read-out: 797 IC50. (In general: Cellular ATP, detected with luciferase, serves as a proxy for viable cell number.)
In assay [4] the target is PLK1 (Homo sapiens, UniProt P53350). Kind of assay: PLK1 kinase IC50, Table 2. It is filed as biochemical.
Assay [5] concerns the target T2, BRD4 (Homo sapiens, UniProt O60885). Kind of assay: BRD4 IC50, second listed in Table 2. It is filed as binding.
In assay [6] the test system is MV411. The experiment in a line: Cell line IC50, MV411. It is filed as cell-based.
Assay [7] concerns NOMO1. The experiment in a line: Cell line IC50, NOMO1. It is filed as cell-based.
Assay [8] addresses BRDT (Homo sapiens, UniProt Q58F21). Kind of assay: BRDT IC50, Table 2. It counts as binding.
Assay [9] addresses T2, BRD4. The experiment in a line: BRD4 IC50, first listed in Table 2. It counts as binding. Conditions: first BRD4 value listed in the cell.
Assay [10] has as its system TF-1. Kind of assay: Cell line IC50, TF-1. Conditions: TF-1 cell line. It is filed as cell-based.
For assay [11], the system named is Kasumi-1. Kind of assay: Cell line IC50, Kasumi-1. It is filed as cell-based. As to conditions: Kasumi-1 cell line.
Assay [12] relates to MOLM-13. Kind of assay: Cell line IC50, MOLM-13. It counts as cell-based. Conditions: MOLM-13 cell line.
Assay [13] addresses T3, AURKA (Homo sapiens, UniProt O14965).
T3 sequence (O14965 1-403): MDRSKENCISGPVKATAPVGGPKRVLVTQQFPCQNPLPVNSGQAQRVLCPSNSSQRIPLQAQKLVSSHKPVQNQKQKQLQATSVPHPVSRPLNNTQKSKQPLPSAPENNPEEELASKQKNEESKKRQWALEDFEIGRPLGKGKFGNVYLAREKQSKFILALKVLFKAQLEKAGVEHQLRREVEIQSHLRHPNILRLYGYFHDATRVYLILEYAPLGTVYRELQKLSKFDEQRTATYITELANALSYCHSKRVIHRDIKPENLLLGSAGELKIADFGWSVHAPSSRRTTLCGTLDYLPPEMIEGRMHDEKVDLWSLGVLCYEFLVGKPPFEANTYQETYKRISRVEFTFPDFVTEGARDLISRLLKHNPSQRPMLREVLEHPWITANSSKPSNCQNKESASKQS
Kind of assay: AURKA kinase IC50, Table 2. It counts as biochemical.

For assay [14], the system named is HL60. The experiment in a line: cells. As to conditions: Homo sapiens, HL-60, read-out: HL60 (EC50, M).
Setting [15] is: second BRD4 value listed in the cell, read-out: BRD4 IC50.
[16] abbreviates: Homo sapiens, NOMO-1, NOMO1 cell line.
Where [17] appears, read: Homo sapiens, NOMO1 (NOMO-1) cell line.

From US20160347750A1, “DIHYDROPTERIDINONE DERIVATIVES AND USES THEREOF” (Dana-Farber Cancer Institute, Inc., priority 2014, published 2016) come the findings set out here.

Where two headings read alike, the source gives them in different places.

Sequence of PLK1 (P53350 whole entry): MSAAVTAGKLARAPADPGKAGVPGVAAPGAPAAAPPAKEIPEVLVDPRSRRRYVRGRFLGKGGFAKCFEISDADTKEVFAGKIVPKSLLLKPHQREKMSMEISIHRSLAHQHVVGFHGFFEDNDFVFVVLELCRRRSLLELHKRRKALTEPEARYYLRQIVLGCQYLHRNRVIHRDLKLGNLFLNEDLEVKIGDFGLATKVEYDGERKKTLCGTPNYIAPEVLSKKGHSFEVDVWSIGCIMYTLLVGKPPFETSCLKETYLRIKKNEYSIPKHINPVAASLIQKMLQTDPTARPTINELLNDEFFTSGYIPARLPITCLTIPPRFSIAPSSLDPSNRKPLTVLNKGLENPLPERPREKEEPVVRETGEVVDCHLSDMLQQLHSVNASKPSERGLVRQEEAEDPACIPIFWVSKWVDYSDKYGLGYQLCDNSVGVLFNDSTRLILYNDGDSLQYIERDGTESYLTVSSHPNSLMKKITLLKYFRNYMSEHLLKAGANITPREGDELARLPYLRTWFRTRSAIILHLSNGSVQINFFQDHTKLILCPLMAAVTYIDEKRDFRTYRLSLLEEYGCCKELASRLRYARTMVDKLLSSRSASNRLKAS

On to `CC[C@@H]1C(=O)N(C)c2cnc(Nc3ccc(C(=O)N[C@H]4CC[C@H](N5CCN(CC6CC6)CC5)CC4)cc3OC)nc2N1C(C)C`, for which the IC50 in [1] was 1070 nM. For the same compound, the Kd in assay [2] turned out to be 255 nM.

For `CC[C@@H]1C(=O)N(C)c2cnc(Oc3ccc(C(=O)NC4CCN(C)CC4)cc3OC)nc2N1C1CCCC1`, the IC50 in assay [3] (797 cell line, Table 2) was 425 nM; in [4], greater than 10000 nM; in [5] (setting [15]) it was 720 nM; in assay [6] (Homo sapiens, MV4-11), 316 nM; in assay [7] (setting [16]), 7400 nM; in assay [8], 1170 nM. In addition, the IC50 in assay [9] is 415 nM; in assay [10] (Homo sapiens), 5400 nM; in assay [11] (Homo sapiens), 1290 nM; in assay [12] (Homo sapiens), 1590 nM.

Regarding `CC[C@@H]1C(=O)N(C)c2cnc(N(C)c3ccc(C(=O)NC4CCN(C)CC4)cc3OC)nc2N1C1CCCC1`, the IC50 in [3] (797 cell line, Table 2) was 342 nM; in [4], 725 nM; in assay [5] (setting [15]), 247 nM; in assay [6] (Homo sapiens, MV4-11) it was 200 nM; in assay [7] (setting [17]) it was 771 nM; in [8], 365 nM. Also, the concentration for half-maximal inhibition (IC50) in assay [9] was found to be 130 nM; in assay [10] (Homo sapiens), 1580 nM; in [11] (Homo sapiens), 339 nM; in assay [12] (Homo sapiens), 351 nM.

`CC[C@@H]1C(=O)N(C)c2cnc(Nc3ccc(C(=O)NC4CCN(C)CC4)cc3OC3CCCC3)nc2N1C1CCCC1`: the IC50 in assay [3] (797 cell line, Table 2) is 95 nM; in [4], 19 nM; in assay [5] (setting [15]), 78 nM; in [6] (Homo sapiens, MV4-11), 71.2 nM; in assay [7] (setting [17]) it was 114 nM; in [8] it was 491 nM. For the same compound, the IC50 in assay [9] was found to be 112 nM; in assay [10] (Homo sapiens), 302 nM; in [11] (Homo sapiens), 74.9 nM; in assay [12] (Homo sapiens) it was 114 nM.

Take `CC[C@@H]1C(=O)N(CC)c2cnc(Nc3ccc(C(=O)NC4CCN(C)CC4)cc3OC)nc2N1C1CCCC1`: the IC50 was 166 nM in [3] (797 cell line, Table 2); 546 nM in assay [5] (setting [15]); 112 nM in assay [6] (Homo sapiens, MV4-11); 232 nM in assay [7] (setting [17]); 1330 nM in assay [8]; 339 nM in assay [9]. The IC50 in assay [10] (Homo sapiens) came to 806 nM; in [11] (Homo sapiens), 239 nM; in assay [12] (Homo sapiens), 174 nM.

As for `CC[C@@H]1C(=O)N(C)c2cnc(Nc3ccc(C(=O)NC4CCN(C)CC4)cc3OC3CCOCC3)nc2N1C1CCCC1`, the IC50 in assay [3] (797 cell line, Table 2) came to 88 nM; in assay [4], 57.6 nM; in [5] (setting [15]) it was 228 nM; in assay [6], 74.6 nM; in [7] (NOMO1 (NOMO-1) cell line) it was 491 nM; in assay [8], 862 nM. Also, the IC50 came out at 175 nM in [9], 1160 nM in [10], 183 nM in assay [11] and 111 nM in assay [12].

Take `CC[C@@H]1C(=O)Nc2cnc(Nc3ccc(C(=O)NC4CCN(C)CC4)cc3OC)nc2N1C1CCCC1`: the IC50 came to 420 nM in [3] (797 cell line, Table 2); 129 nM in [4]; 6300 nM in assay [5] (setting [15]); 302 nM in assay [6] (Homo sapiens, MV4-11); 3200 nM in [7] (setting [16]); 21100 nM in [8]. Further, the IC50 stood at 9170 nM in [9], 6700 nM in assay [10] (Homo sapiens), 1470 nM in [11] (Homo sapiens) and 341 nM in [12] (Homo sapiens).

In the case of `CC[C@@H]1C(=O)N(C)c2cnc(Nc3ccc(C(=O)NC4CCN(C)CC4)cc3)nc2N1C1CCCC1`, the IC50 is 6 nM in assay [3]; 4.1 nM in assay [4]; 231 nM in [5]; 10 nM in assay [6] (Homo sapiens, MV4-11); 29 nM in assay [7] (setting [17]); 9360 nM in [13]. The IC50 in assay [8] was 688 nM; in assay [9], 147 nM; in [12] (Homo sapiens), 8.5 nM.

With `CC[C@@H]1C(=O)N(C)c2cnc(N3CCOc4cc(C(=O)NC5CCN(C)CC5)ccc43)nc2N1C1CCCC1`, the IC50 in [3] (797 cell line, Table 2) was 1940 nM; in [4] it was 1700 nM; in assay [5] (setting [15]), 832 nM; in assay [6] (Homo sapiens, MV4-11) it was 976 nM; in [7] (setting [17]), 5420 nM; in assay [8] it was 5370 nM. In addition, the IC50 was found to be 1620 nM in [9] and 3490 nM in [12] (Homo sapiens).

As for `CC[C@@H]1C(=O)N(C)c2cnc(N3CCc4cc(C(=O)NC5CCN(C)CC5)ccc43)nc2N1C1CCCC1`, the IC50 in assay [3] (797 cell line, Table 2) is 64 nM; in [4] it was 20 nM; in assay [5] (setting [15]), 43 nM; in [6] (Homo sapiens, MV4-11) it was 86 nM; in assay [7] (setting [17]), 247 nM; in [8], 213 nM. Further, the figures for the IC50 in assay [9] and in assay [12] (Homo sapiens) were 53 nM and 137 nM, respectively.

Regarding `CC[C@@H]1C(=O)N(C)c2ccc(Nc3ccc(C(=O)NC4CCN(C)CC4)cc3OC)nc2N1C1CCCC1`, the IC50 in assay [3] (797 cell line, Table 2) worked out at 701 nM; in assay [4], 1870 nM; in [5] (setting [15]), 188 nM; in [6] (Homo sapiens, MV4-11), 404 nM; in assay [7] (setting [17]) it was 1830 nM; in assay [8] it was 859 nM. The IC50 was determined as 263 nM in assay [9] and 851 nM in assay [12] (Homo sapiens).

For `CC[C@@H]1C(=O)N(C)c2ccc(N3CCc4cc(C(=O)NC5CCN(C)CC5)ccc43)nc2N1C1CCCC1`, the IC50 in [3] (797 cell line, Table 2) was 937 nM; in assay [4] it was greater than 10000 nM; in [5] (setting [15]), 172 nM; in assay [6] (Homo sapiens, MV4-11), 357 nM; in assay [7] (setting [17]), 1730 nM; in [8], 1050 nM. The IC50 was 394 nM in assay [9] and 828 nM in [12] (Homo sapiens).

As to `C[C@@H]1C(=O)N(C)c2ccc(N3CCc4cc(C(=O)NC5CCN(C)CC5)ccc43)nc2N1C1CCCC1`, the IC50 in assay [3] (797 cell line, Table 2) is 227 nM; in assay [4] it was greater than 10000 nM; in [5] (setting [15]), 78 nM; in assay [6] (Homo sapiens, MV4-11), 135 nM; in assay [7] (setting [17]), 728 nM; in [8] it was 469 nM. For the same compound, the IC50 in [9] was found to be 160 nM; in assay [12] (Homo sapiens) it was 333 nM.

Regarding `COc1cc(C(=O)NC2CCN(C)CC2)ccc1Nc1ncc2c(n1)N(C1CCCC1)[C@H](CC(C)C)C(=O)N2C`, the IC50 in assay [3] (797 cell line, Table 2) was found to be 292 nM; in assay [4], 78 nM; in assay [5] (setting [15]), 18800 nM; in assay [6] (Homo sapiens, MV4-11) it was 550 nM; in [7] (setting [17]) it was 775 nM; in assay [8] it was 24500 nM. In addition, the IC50 was determined as 13500 nM in assay [9] and 461 nM in [12] (Homo sapiens).

In the case of `COc1cc(C(=O)NC2CCN(C)CC2)ccc1Nc1ccc2c(n1)N(C1CCCC1)[C@H](C)C(=O)N2C`, the IC50 in assay [3] (797 cell line, Table 2) is 181 nM; in [4], greater than 10000 nM; in [5] (setting [15]), 100 nM; in [6] (Homo sapiens, MV4-11), 21 nM; in assay [7] (setting [17]), 529 nM; in [8], 249 nM. For the same compound, the IC50 in [9] worked out at 92 nM; in assay [12] (Homo sapiens), 218 nM.

`Cc1sc2c(c1C)C(c1ccc(Cl)cc1)=N[C@@H](CC(=O)OC(C)(C)C)c1nnc(C)n1-2` [JQ1, reference compound]: the IC50 is 92 nM in assay [3] (797 cell line, Table 2); 65.6 nM in [6]; 172 nM in [7] (NOMO1 (NOMO-1) cell line); 109 nM in assay [10]; 48.8 nM in [11]; 89.2 nM in assay [12].

Turning to `CC[C@@H]1C(=O)N(C)c2cnc(Nc3ccc(C(=O)NC4CCN(C)CC4)cc3OC)nc2N1C1CCCC1` [drawing 199], the EC50 in assay [3] (read-out: 797 (EC50, M)) was found to be 1.07e-08 M; in assay [14] it was 3.65e-08 M.

Regarding `CC[C@@H]1C(=O)N(C)c2cnc(Nc3ccc(C(=O)NC4CCN(C)CC4)cc3OC)nc2N1C1CCCC1` [drawing 214], the IC50 was found to be 5 nM in assay [3]; 5.4 nM in assay [6] (Homo sapiens, MV4-11); 11.9 nM in [7] (setting [17]); 772 nM in [10] (Homo sapiens); 9.9 nM in [11] (Homo sapiens); 8.1 nM in assay [12] (Homo sapiens).

Take `C[C@@H](Oc1cc(-n2cnc3ccc(CN4CCN(C)CC4)cc32)sc1C(N)=O)c1ccccc1C(F)(F)F` [reference compound]: the half-maximal inhibitory concentration (IC50) in assay [3] (797 cell line, Table 2) was 8 nM; in assay [6] (Homo sapiens, MV4-11), 7.1 nM; in [8], greater than 50000 nM; in [9], greater than 50000 nM; in assay [11] (Homo sapiens), 7.8 nM. In assay [10] (result in words), the “TF-1 IC50” value was “poor convergence”.

As usually defined, the IC50 is the concentration at which inhibition is half-maximal. As a reminder, the Kd is the equilibrium constant for the complex coming apart. As a reminder, the EC50 is the midpoint of the concentration-response curve.
